From PMC10045663, “Synthesis, In Vitro Biological Evaluation of Antiproliferative and Neuroprotective Effects and In Silico Studies of Novel 16E-Arylidene-5α,6α-epoxyepiandrosterone Derivatives” (Biomedicines, 2023)

Tests used:
N27 cells [1] = experiment: N27 cell viability after 24 h (MTT), substance alone; assay type: cell-based, rat
Method: The immortalized rat mesencephalic dopaminergic cell line (N27 cells; a kind gift from Dr. Yoon-Seong Kim, Burnett School of Biomedical Sciences, University of Central Florida) was grown in Roswell Park Memorial Institute (RPMI) 1640 medium (Sigma-Aldrich) containing 2 g/L sodium bicarbonate, 10% fetal bovine serum (FBS; Millipore), and 1 mL/L of penicillin/streptomycin (GIBCO) in a humidified atmosphere of 5% CO2 at 37 °C. Cells were plated at a density of 0.31 × 10^5 cells per cm^2 in 96-well culture plates. […] To assess cell viability, MTT reduction was performed as previously described (Section 2.3) with some modifications. Briefly, after 24 h of cell treatments, 0.5 mg/mL of MTT was added to cells for 4 h at 37 °C. Then, the resultant precipitate was dissolved in 10% SDS and quantified at a wavelength of 570 nm.

[2] = test system: N27 (rat dopaminergic neuronal cells); experiment: MTT cell proliferation assay, N27 cells; assay type: cell-based; details: 72 h, non-tumoral cells, read-out: Estimated IC50, N27
Method: (§1) LNCaP, PC-3, MCF-7, PNT1A, N27, and NHDF cells were obtained from the American Type Culture Collection (ATCC; Manassas, VA, USA) and were cultured in 75 cm^2 culture flasks at 37 °C in a humidified air incubator with 5% CO2. LNCaP, PC-3, PNT1A, and N27 cells, respectively, were cultured in RPMI 1640 medium (Sigma-Aldrich, Inc. St. Louis, MO, USA) with 10% fetal bovine serum (FBS; Sigma-Aldrich, Inc. St. Louis, MO, USA) and 1% of the antibiotic mixture of 10,000 U/mL penicillin G and […] streptomycin (Sp, Sigma-Aldrich, Inc. St. Louis, MO, USA). MCF-7 cells were cultured in DMEM medium (Sigma-Aldrich, Inc. St. Louis, MO, USA) supplemented with 10% fetal bovine serum (FBS; Sigma-Aldrich, Inc. St. Louis, MO, USA) and 1% antibiotic/antimycotic (10,000 U/mL penicillin G, […] streptomycin, and 25 µg/mL amphotericin B: Ab, Sigma-Aldrich, Inc. St. Louis, MO, USA). Finally, NHDF cells were cultured in RPMI 1640 medium supplemented with 10% FBS, 2 mM L-glutamine, 10 mM HEPES, 1 mM sodium pyruvate, and 1% of the antibiotic/antimycotic Ab, and these cells were used in passages 10th to 14th. For all cell types, the medium was renewed every 2 days until cells nearly reached the confluence state. When cells reach approximately 90–95% confluence, they are gently detached by trypsinization (trypsin-EDTA solution: 0.125 g/L of trypsin and 0.02 g/L of EDTA). Before each experiment, viable cells were counted in a Neubauer chamber by a trypan-blue exclusion assay and adequately diluted in the appropriate complete cell culture medium.
(§2) All tested compounds were dissolved in dimethyl sulfoxide (DMSO; Sigma-Aldrich, Inc. St. Louis, MO, USA) at a concentration of 10 mM and stored at 4 °C. From the mother-solutions, the diluted solutions of the compounds, in different concentrations, were prepared in the respective complete culture medium before each experiment.
(§3) After reaching a confluence state, cells were trypsinized and counted by the trypan-blue exclusion assay and then seeded with an initial density of 2 × 10^4 cells/mL in 96-well culture plates (Nunc, Apogent, Denmark) and left to adhere and grow for 48 h. Subsequently, the medium was removed, and the cells were treated with compound solutions (10 and 50 µM for preliminary studies and 0.01, 0.1, 1, 10, 50, and 100 µM for concentration-response studies) in complete culture medium for 72 h. 5-Fluorouracil (5-FU) was used as a positive control, and untreated cells were used as the negative control. Compounds leading to cell proliferation relative to control clearly below 50%, at 10 µM, or clearly below 25%, at 50 µM, in the screening studies were selected to concentration-response studies in tumoral cell lines. Each experiment was performed in quadruplicate and independently at least two times. The in vitro antiproliferative effects were evaluated by the MTT assay (Sigma-Aldrich, Inc. St. Louis, MO, USA). After the incubation period, the medium was removed, and 100 µL of phosphate buffer saline (PBS, NaCl 137 mM; KCl 2.7 mM; Na2HPO4 10 mM; and KH2PO4 1.8 mM in deionized water with a pH adjusted to 7.4) were used to wash the cells. Then, 100 µL of the MTT solution (5 mg/mL) was prepared in the appropriate serum-free medium and added to each well, followed by incubation for 4 h at 37 °C. Hereafter, the MTT containing medium was removed, and the formazan crystals were dissolved in DMSO. Then, the absorbance was measured at 570 nm using a xMarkTM microplate spectrophotometer from BIO-RAD Laboratories. Cell viability values were expressed as percentages relative to the negative control.

[3] = test system: NHDF cells (normal human dermal fibroblasts); experiment: MTT cell proliferation assay, NHDF cells; assay type: cell-based; details: 72 h, non-tumoral cells, read-out: Estimated IC50, NHDF
Method: as §1, §2, §3

[4] = test system: PNT1A (normal prostate cells); experiment: MTT cell proliferation assay, PNT1A cells; assay type: cell-based; details: 72 h, non-tumoral cells, read-out: Estimated IC50, PNT1A
Method: as §1, §2, §3

[5] = test system: PC-3 cells (androgen-independent prostatic cancer); experiment: MTT cell proliferation assay, PC-3 cells; assay type: cell-based; details: 72 h; for IC50: MTT, tumoral cells, read-out: Estimated IC50, PC-3; for decrease on cell proliferation relative to the control: PC-3, 50 µM
Method: as §1, §2, §3

[6] = test system: MCF-7 cells (estrogen-responsive breast cancer cells); experiment: MTT cell proliferation assay, MCF-7 cells; assay type: cell-based; details: 72 h; for IC50: MTT, tumoral cells, read-out: Estimated IC50, MCF-7
Method: as §1, §2, §3

[7] = test system: LNCaP cells (androgen-dependent prostatic cancer); experiment: MTT cell proliferation assay, LNCaP cells; assay type: cell-based; details: 72 h; for effect on LNCaP cell proliferation: 10 µM; for decrease in LNCaP cell proliferation: 50 µM; for IC50: MTT, tumoral cells, read-out: Estimated IC50, LNCaP
Method: as §1, §2, §3

[8] = test system: all cell lines (NHDF, PNT1A, N27, LNCaP, PC-3, MCF-7); experiment: MTT preliminary screening, all cell lines taken together; assay type: cell-based; details: 50 µM, 72 h
Method: as §1, §2, §3

N27 cells [9] = experiment: Neuroprotection against 6-OHDA-induced toxicity (MTT); assay type: cell-based, rat; details: 10 and 50 µM together with 50 µM 6-OHDA, 24 h
Method: The immortalized rat mesencephalic dopaminergic cell line (N27 cells; a kind gift from Dr. Yoon-Seong Kim, Burnett School of Biomedical Sciences, University of Central Florida) was grown in Roswell Park Memorial Institute (RPMI) 1640 medium (Sigma-Aldrich) containing 2 g/L sodium bicarbonate, 10% fetal bovine serum (FBS; Millipore), and 1 mL/L of penicillin/streptomycin (GIBCO) in a humidified atmosphere of 5% CO2 at 37 °C. Cells were plated at a density of 0.31 × 10^5 cells per cm^2 in 96-well culture plates. In the MTT assay, N27 cells were incubated in the presence of several compounds with 50 μM of 6-OHDA. To assess cell viability, MTT reduction was performed as previously described (Section 2.3) with some modifications. Briefly, after 24 h of cell treatments, 0.5 mg/mL of MTT was added to cells for 4 h at 37 °C. Then, the resultant precipitate was dissolved in 10% SDS and quantified at a wavelength of 570 nm.

IC50 [6] [µM] | IC50 [7] [µM] | Compound | reduction in cell viability compared to the control (N27 cells [1]; 50 μM) [%] | IC50 [2] [µM] | IC50 [3] [µM] | IC50 [4] [µM] | IC50 [5] [µM] | effect on LNCaP cell proliferation [7] | decrease in LNCaP cell proliferation [7] | relative cell proliferation [8] [%] | decrease on cell proliferation relative to the control [5] | protection against 6-OHDA-induced neurotoxicity (N27 cells [9]) | effect on N27 cell viability (N27 cells [1]; 10 µM alone) | cell proliferation relative to the control ([6]; MCF-7, 50 µM) [%]
 |  | NCCc1cc(O)c(O)cc1O [Compound 6-OHDA, 6-hydroxydopamine, reference compound] | ~50 |  |  |  |  |  |  |  |  |  |  | 
 |  | COc1ccc(C=C2CC3C4CC5OC56CC(O)CCC6(C)C4CCC3(C)C2=O)cc1 (stereo not drawn) [Compound 16, (E)-16-(4-Metoxybenzylidene)-3-hydroxy-5α ,6α -epoxy-10,13-dimethyl-1,3,4,7,8,9,10,11,12,13,15,16-dodecahydro-2H-cyclopenta[α ]phenanthren-17(14H)-one] |  | 33.2 | 39.3 | 54.5 | 20.1 |  |  |  |  |  |  | 
 |  | CC12CCC3C(CC4OC45CC(O)CCC35C)C1CC(=Cc1cccs1)C2=O (stereo not drawn) [Compound 18, (E)-16-(Thiophen-2-ylmethylene)-3-hydroxy-5α ,6α -epoxy-10,13-dimethyl-1,3,4,7,8,9,10,11,12,13,15,16-dodecahydro-2H-cyclopenta[α ]phenanthren-17(14H)-one] |  | 12.6 | 29.7 | 29.6 | 37.6 |  |  |  |  |  |  | 
 |  | Cc1ccc(/C=C2\C[C@H]3[C@@H]4C[C@@H]5O[C@@]56CC(O)CC[C@]6(C)[C@H]4CC[C@]3(C)C2=O)o1 (stereo partly drawn) [Compound 21, (E)-16-[(5-Methylfuran-2-yl)methylene]-3-hydroxy-5α ,6α -epoxy-10,13-dimethyl-1,3,4,7,8,9,10,11,12,13,15,16-dodecahydro-2H-cyclopenta[α ]phenanthren-17(14H)-one] |  | 13.2 | 23.4 | 46.3 |  |  |  |  |  |  |  | 
 |  | C[C@]12CC[C@H]3[C@@H](C[C@@H]4O[C@@]45CC(O)CC[C@]35C)[C@@H]1C/C(=C\c1cccc(F)c1F)C2=O (stereo partly drawn) [Compound 24, (E)-16-(2,3-Difluorobenzylidene)-3-hydroxy-5α ,6α -epoxy-10,13-dimethyl-1,3,4,7,8,9,10,11,12,13,15,16-dodecahydro-2H-cyclopenta[α ]phenanthren-17(14H)-one] |  | 18.9 | 33.4 | 56.5 |  |  |  |  |  |  |  | 
 |  | CC12CCC3C(CC4OC45CC(O)CCC35C)C1CCC2C(=O)C=Cc1ccccc1 (stereo not drawn) [cD, 21E-benzylidene-5α,6α-epoxipregnenolone, reference compound] |  |  |  |  |  |  |  |  |  | did not protect | did not affect cell viability | 
14.5 | 15 | (E)-16-(2,4-Dichlorobenzylidene)-3-hydroxy-5α ,6α -epoxy-10,13-dimethyl-1,3,4,7,8,9,10,11,12,13,15,16-dodecahydro-2H-cyclopenta[α ]phenanthren-17(14H)-one [Compound 22] |  | 16.8 | 15 | 14.4 | 44.5 | no relevant effects | higher than 75% | ≤ 50 | higher than 75% |  |  | ~0
42.7 | 27.4 | (E)-16-Benzylidene-3-hydroxy-5α,6α-epoxy-10,13-dimethyl-1,3,4,7,8,9,10,11,12,13,15,16-dodecahydro-2H-cyclopenta[α]phenanthrene-17(14H)-one [Compound 15] |  | 9.21 | 39.5 | 33.1 | 17 |  |  | ≤ 50 | higher than 75% |  |  | 
21.8 | 11.3 | (E)-16-[(5-Chlorothiophen-2-yl)methylene]-3-hydroxy-5α ,6α -epoxy-10,13-dimethyl-1,3,4,7,8,9,10,11,12,13,15,16-dodecahydro-2H-cyclopenta[α ]phenanthren-17(14H)-one [Compound 26] |  | 14.3 | 16.6 | 15.6 | 43.8 | no relevant effects | higher than 75% | ≤ 50 | higher than 75% |  |  | 

Compound | IC50 [6] [µM] | IC50 [7] [µM] | reduction in cell viability compared to the control (N27 cells [1]; 50 μM) [%] | IC50 [2] [µM] | IC50 [3] [µM] | IC50 [4] [µM] | IC50 [5] [µM] | effect on LNCaP cell proliferation [7] | decrease in LNCaP cell proliferation [7] | relative cell proliferation [8] [%] | decrease on cell proliferation relative to the control [5] | protection against 6-OHDA-induced neurotoxicity (N27 cells [9]) | effect on N27 cell viability (N27 cells [1]; 10 µM alone) | cell proliferation relative to the control ([6]; MCF-7, 50 µM) [%]
Cc1ccc(C=C2CC3C4CC5OC56CC(O)CCC6(C)C4CCC3(C)C2=O)cc1 (stereo not drawn) [Compound 23, (E)-16-(4-Methylbenzylidene)-3-hydroxy-5α ,6α -epoxy-10,13-dimethyl-1,3,4,7,8,9,10,11,12,13,15,16-dodecahydro-2H-cyclopenta[α ]phenanthren-17(14H)-one] | 18.7 | 19.3 |  | 12.7 | 28.3 | 13.3 | 14 | no relevant effects | higher than 75% | ≤ 50 |  |  |  | 
CC12CCC3C(CC4OC45CC(O)CCC35C)C1CC(=Cc1ccc(Br)cc1)C2=O (stereo not drawn) [Compound 25, (E)-16-(4-Bromobenzylidene)-3-hydroxy-5α ,6α -epoxy-10,13-dimethyl-1,3,4,7,8,9,10,11,12,13,15,16-dodecahydro-2H-cyclopenta[α ]phenanthren-17(14H)-one] | 14.5 | 36.9 |  | 15.4 | 16 | 15.3 | 14.5 | no relevant effects | higher than 75% | ≤ 50 | higher than 75% |  |  | 
